From publication PMC9085577, “Discovery of a Potent and Orally Active Dual GPBAR1/CysLT1R Modulator for the Treatment of Metabolic Fatty Liver Disease” (Frontiers in Pharmacology, 2022)

Test system: liver transcriptome
Assay: AmpliSeq liver transcriptome of HFD-F mice
Format: in vivo
Excerpt: C57BL/6J male mice were fed a high fat diet (HFD) containing 59 KJ% fat plus 1% cholesterol, w/o sugar (ssniff ® EF R/M acc. D12330 mod. 22,7 ME/kg) and fructose (HFD-F) in drinking water (42 g/L), or normal chow diet for 61 days. Food intake was estimated as the difference of weight between the offered and the remnant amount of food at 3-days intervals. The food was provided as pressed pellets and the residual spillage was not considered. After 7 days, HFD-F mice were randomized to receive HFD-F alone or in combination with compound 2 (30 mg/kg/day) by gavage until the end of the experiment. Doses of each agent were chosen according to previously published data. Mice were housed under controlled temperature (22°C) and photoperiods (12:12-h light/dark cycle), allowed unrestricted access to standard mouse chow and tap water. The experimental protocol was approved by the Animal Care and Use Committee of the University of Perugia and by the Italian Minister of Health and Istituto Superiore di Sanità (Italy) and was in agreement with the European guidelines for use of experimental animals (permission n. 583/2017-PR). The general health of the animals was monitored daily by the Veterinarian in the animal facility. At the day of sacrifice, fed mice were deeply anesthetized with a mixture of tiletamine hypochloride and zolazepam hypochloride/xylazine at a dose of 50/5 mg/kg and sacrificed before 12 a.m.
High-quality RNA was extracted from mice livers, using the Direct-zol™ RNA MiniPrep w/Zymo-Spin™ IIC Columns (Zymo Research, Irvine, CA) according to the manufacturer’s instructions. RNA quality and quantity were assessed with the Qubit® RNA HS Assay Kit and a Qubit 3.0 fluorometer (Invitrogen, Carlsbad, CA) followed by agarose gel electrophoresis. Libraries were generated using the Ion AmpliSeq™ Transcriptome Mouse Gene Expression Core Panel and Chef-Ready Kit (Comprehensive evaluation of AmpliSeq transcriptome, a whole transcriptome RNA sequencing methodology) (Thermo Fisher Scientific, Waltham, MA). Briefly, 10 ng of RNA was reverse transcribed with SuperScript™ Vilo™ cDNA Synthesis Kit (Thermo Fisher Scientific, Waltham, MA) before library preparation on the Ion Chef™ instrument (Thermo Fisher Scientific, Waltham, MA). The resulting cDNA was amplified to prepare barcoded libraries using the Ion Code™ PCR Plate, and the Ion AmpliSeq™ Transcriptome Mouse Gene Expression Core Panel (Thermo Fisher Scientific, Waltham, MA), Chef-Ready Kit, according to the manufacturer’s instructions. Barcoded libraries were combined to a final concentration of 100 p.m., and used to prepare Template-Positive Ion Sphere™ (Thermo Fisher Scientific, Waltham, MA) Particles to load on Ion 540™ Chips, using the Ion 540™ Kit-Chef (Thermo Fisher Scientific, Waltham, MA). Sequencing was performed on an Ion S5™ Sequencer with Torrent Suite™ Software v6 (Thermo Fisher Scientific, Waltham, MA). The analyses were performed with a range of fold <−2 and >+2 and a p value <0.05, using Transcriptome Analysis Console Software (version 4.0.1), certified for AmpliSeq analysis (Thermo-Fisher). The transcriptomic data have been deposited as dataset on Mendeley data repository (reference number linking to the repository: Fiorucci, Stefano; Biagioli, Michele; Marchianò, Silvia; Di Giorgio, Cristina (2021), “Discovery of potent dual GPBAR1/CysLT1R modulator for the treatment of metabolic fatty liver disease,” Mendeley Data, V1, doi: 10.17632/6dnrk9fc72.1).

[1] = HFD-F mice, 30 mg/kg/day by gavage
[2] = in comparison to untreated mice

liver expression of Cyp7a1 (HFD-F mice, 30 mg/kg/day by gavage, 30 mg/kg/day): potently increased | Cyp1a2 transcript Avg (log2) (liver, HFD + compound 2): 11.93 log2 | Cyp2a5 transcript Avg (log2) (liver, HFD + compound 2): 10.52 log2 | Cyp7a1 transcript Avg (log2) (liver, HFD + compound 2): 9.39 log2
Structure (SMILES): O=C(O)c1cccc(-c2ccc(OCc3ccc4ccccc4n3)cc2)c1 [Compound 2, 4'-(quinolin-2-ylmethoxy)-[1,1′-biphenyl]-3-carboxylic acid]
liver expression of Alox5 [1]: downregulated | liver expression of Col1α1 [1]: reversed | liver expression of Elov5, Mogat1, fabp2, Cd36, Me1, and Cidea [1]: reduced significantly | liver expression of FXR and its target genes Shp and Bsep [1]: no effect | liver expression of Fasn [1]: reduced significantly | liver expression of Fgf21 [1]: decreased | liver expression of Srepb1f [1]: no effect | liver expression of αSma [1]: reversed | number of liver genes modulated compared to HFD-F alone (fold change <−2 or >2, p value < 0.05): 154 | liver expression of Pparα [2]: increased | liver expression of Pparγ [2]: increased | 1810011O10Rik transcript Avg (log2) (liver, HFD + compound 2): 5.22 log2 | 2310001K24Rik transcript Avg (log2) (liver, HFD + compound 2): 2.22 log2 | 2310039H08Rik transcript Avg (log2) (liver, HFD + compound 2): 3.92 log2 | 4833423E24Rik transcript Avg (log2) (liver, HFD + compound 2): 1.1 log2 | 6430573F11Rik transcript Avg (log2) (liver, HFD + compound 2): 1.17 log2 | AW549542 transcript Avg (log2) (liver, HFD + compound 2): 6.06 log2 | Abcb1a transcript Avg (log2) (liver, HFD + compound 2): 2.24 log2 | Acod1 transcript Avg (log2) (liver, HFD + compound 2): 0.24 log2 | Acot3 transcript Avg (log2) (liver, HFD + compound 2): 1.85 log2 | Adam8 transcript Avg (log2) (liver, HFD + compound 2): 0.63 log2 | Adam11 transcript Avg (log2) (liver, HFD + compound 2): 7.79 log2 | Anxa2 transcript Avg (log2) (liver, HFD + compound 2): 4.37 log2 | Apcs transcript Avg (log2) (liver, HFD + compound 2): 6.13 log2 | Arntl transcript Avg (log2) (liver, HFD + compound 2): 1.77 log2 | Arsg transcript Avg (log2) (liver, HFD + compound 2): 4.36 log2 | Atp1a3 transcript Avg (log2) (liver, HFD + compound 2): 0.63 log2 | Aurka transcript Avg (log2) (liver, HFD + compound 2): 0.66 log2 | Avpr1a transcript Avg (log2) (liver, HFD + compound 2): 3.76 log2 | Bcat1 transcript Avg (log2) (liver, HFD + compound 2): 0 log2 | C920009B18Rik transcript Avg (log2) (liver, HFD + compound 2): 0.43 log2 | Cabyr transcript Avg (log2) (liver, HFD + compound 2): 3.88 log2 | Capn11 transcript Avg (log2) (liver, HFD + compound 2): 2.07 log2 | Ccl2 transcript Avg (log2) (liver, HFD + compound 2): 2.2 log2 | Ccl3 transcript Avg (log2) (liver, HFD + compound 2): 1.68 log2 | Ccl4 transcript Avg (log2) (liver, HFD + compound 2): 0.13 log2 | Ccl7 transcript Avg (log2) (liver, HFD + compound 2): 0.8 log2 | Ccl9 transcript Avg (log2) (liver, HFD + compound 2): 5.17 log2 | Cd9 transcript Avg (log2) (liver, HFD + compound 2): 5.07 log2 | Cd14 transcript Avg (log2) (liver, HFD + compound 2): 2.99 log2 | Cd36 transcript Avg (log2) (liver, HFD + compound 2): 4.05 log2 | Cd63 transcript Avg (log2) (liver, HFD + compound 2): 2.97 log2 | Cdk1 transcript Avg (log2) (liver, HFD + compound 2): 1.66 log2 | Cdkl2 transcript Avg (log2) (liver, HFD + compound 2): 1.24 log2 | Cdkn1a transcript Avg (log2) (liver, HFD + compound 2): 1.4 log2 | Cdkn3 transcript Avg (log2) (liver, HFD + compound 2): 0.2 log2 | Ces2b transcript Avg (log2) (liver, HFD + compound 2): 4.12 log2 | Cetn4 transcript Avg (log2) (liver, HFD + compound 2): 1.14 log2 | Chka transcript Avg (log2) (liver, HFD + compound 2): 4.93 log2 | Chrna4 transcript Avg (log2) (liver, HFD + compound 2): 2.32 log2 | Cidea transcript Avg (log2) (liver, HFD + compound 2): 0.78 log2 | Cidec transcript Avg (log2) (liver, HFD + compound 2): 5.15 log2 | Cirbp transcript Avg (log2) (liver, HFD + compound 2): 6.69 log2 | Ckap2 transcript Avg (log2) (liver, HFD + compound 2): 0.6 log2 | Clec4e transcript Avg (log2) (liver, HFD + compound 2): 0.33 log2 | Clec4d transcript Avg (log2) (liver, HFD + compound 2): 0.27 log2 | Col27a1 transcript Avg (log2) (liver, HFD + compound 2): 6.19 log2 | Csf3 transcript Avg (log2) (liver, HFD + compound 2): 0.06 log2 | Cxcl2 transcript Avg (log2) (liver, HFD + compound 2): 1 log2 | Cyp17a1 transcript Avg (log2) (liver, HFD + compound 2): 4.11 log2 | D17H6S56E-5 transcript Avg (log2) (liver, HFD + compound 2): 1.96 log2 | Dbp transcript Avg (log2) (liver, HFD + compound 2): 7.05 log2 | Defb1 transcript Avg (log2) (liver, HFD + compound 2): 1.19 log2 | Derl2 transcript Avg (log2) (liver, HFD + compound 2): 4.75 log2 | Dhrs9 transcript Avg (log2) (liver, HFD + compound 2): 1.65 log2 | Dtx4 transcript Avg (log2) (liver, HFD + compound 2): 2.62 log2 | Dusp8 transcript Avg (log2) (liver, HFD + compound 2): 1.5 log2 | Egr1 transcript Avg (log2) (liver, HFD + compound 2): 3.52 log2 | Ell transcript Avg (log2) (liver, HFD + compound 2): 5.75 log2 | Elovl3 transcript Avg (log2) (liver, HFD + compound 2): 8.94 log2 | Elovl5 transcript Avg (log2) (liver, HFD + compound 2): 9.72 log2 | Ephb2 transcript Avg (log2) (liver, HFD + compound 2): 0.78 log2 | Epm2aip1 transcript Avg (log2) (liver, HFD + compound 2): 2.63 log2 | Fam57a transcript Avg (log2) (liver, HFD + compound 2): 2.02 log2 | Fgf21 transcript Avg (log2) (liver, HFD + compound 2): 2.1 log2 | Fxyd2 transcript Avg (log2) (liver, HFD + compound 2): 0.72 log2
